Measured values taken from the NIST ThermoML archive (doi:10.1021/acs.jced.8b01135).

Experiment: xn = mol fraction of the nth substance listed
Settings: 102 kPa, Liquid; for speed of sound: Frequency=3 MHz, Single path-length method; for mass density: Vibrating tube method; for viscosity: Concentric cylinders viscometry

CCCC1CCCCC1 [1-cyclohexylpropane] + CCCCCCCCCCCC
Settings	mass density [kg/m3]	speed of sound [m/s]	viscosity [mPa·s]
288.15 K, x1 = 0.1007	755.55	1317.5	–
288.15 K, x1 = 0.2001	758.92	1317.8	–
288.15 K, x1 = 0.3001	762.54	1318.2	–
288.15 K, x1 = 0.4011	766.49	1319.3	–
288.15 K, x1 = 0.5	770.63	1320.1	–
288.15 K, x1 = 0.6004	775.15	1320.9	–
288.15 K, x1 = 0.6995	780	1322.1	–
288.15 K, x1 = 0.7998	785.31	1323.8	–
288.15 K, x1 = 0.8997	791.13	1326.1	–
288.15 K, x1 = 1	797.42	1328.6	–
293.15 K, x1 = 0.1007	751.91	1297.9	1.44
293.15 K, x1 = 0.2001	755.26	1298.2	1.39
293.15 K, x1 = 0.3001	758.87	1298.6	1.34
293.15 K, x1 = 0.4011	762.8	1299.8	1.28
293.15 K, x1 = 0.5	766.92	1300.2	1.23
293.15 K, x1 = 0.6004	771.42	1300.8	1.18
293.15 K, x1 = 0.6995	776.23	1301.9	1.13
293.15 K, x1 = 0.7998	781.51	1303.4	1.08
293.15 K, x1 = 0.8997	787.31	1305.3	1.03
293.15 K, x1 = 1	793.53	1307.7	0.981
298.15 K, x1 = 0.1007	748.27	1278.4	–
298.15 K, x1 = 0.2001	751.61	1278.6	–
298.15 K, x1 = 0.3001	755.2	1279	–
298.15 K, x1 = 0.4011	759.11	1280.3	–
298.15 K, x1 = 0.5	763.2	1280.8	–
298.15 K, x1 = 0.6004	767.68	1280.8	–
298.15 K, x1 = 0.6995	772.46	1281.8	–
298.15 K, x1 = 0.7998	777.71	1283.1	–
298.15 K, x1 = 0.8997	783.46	1284.7	–
298.15 K, x1 = 1	789.63	1287.1	–
303.15 K, x1 = 0.1007	744.62	1259.1	1.23
303.15 K, x1 = 0.2001	747.95	1259.2	1.18
303.15 K, x1 = 0.3001	751.53	1259.5	1.14
303.15 K, x1 = 0.4011	755.41	1260.9	1.1
303.15 K, x1 = 0.5	759.48	1261.1	1.06
303.15 K, x1 = 0.6004	763.93	1261	1.02
303.15 K, x1 = 0.6995	768.68	1261.8	0.977
303.15 K, x1 = 0.7998	773.89	1262.9	0.936
303.15 K, x1 = 0.8997	779.6	1264.3	0.897
303.15 K, x1 = 1	785.72	1266.6	0.856
313.15 K, x1 = 0.1007	737.32	1221.1	1.05
313.15 K, x1 = 0.2001	740.61	1221.1	1.01
313.15 K, x1 = 0.3001	744.15	1221.3	0.979
313.15 K, x1 = 0.4011	747.98	1222.3	0.946
313.15 K, x1 = 0.5	752.01	1222.6	0.914
313.15 K, x1 = 0.6004	756.42	1222.1	0.882
313.15 K, x1 = 0.6995	761.11	1222.6	0.85
313.15 K, x1 = 0.7998	766.24	1223.3	0.818
313.15 K, x1 = 0.8997	771.86	1224.3	0.783
313.15 K, x1 = 1	777.88	1226.2	0.75
323.15 K, x1 = 0.1007	729.98	1183.9	0.909
323.15 K, x1 = 0.2001	733.24	1183.7	0.882
323.15 K, x1 = 0.3001	736.75	1183.8	0.856
323.15 K, x1 = 0.4011	740.52	1184.5	0.831
323.15 K, x1 = 0.5	744.5	1184.6	0.802
323.15 K, x1 = 0.6004	748.86	1183.9	0.776
323.15 K, x1 = 0.6995	753.49	1184.1	0.75
323.15 K, x1 = 0.7998	758.55	1184.6	0.721
323.15 K, x1 = 0.8997	764.09	1185.1	0.694
323.15 K, x1 = 1	770	1186.5	0.668
333.15 K, x1 = 0.1007	722.61	1147.6	0.792
333.15 K, x1 = 0.2001	725.82	1147.3	0.769
333.15 K, x1 = 0.3001	729.3	1147.3	0.75
333.15 K, x1 = 0.4011	733.02	1147.5	0.729
333.15 K, x1 = 0.5	736.95	1147.3	0.707
333.15 K, x1 = 0.6004	741.26	1146.7	0.685
333.15 K, x1 = 0.6995	745.82	1146.7	0.663
333.15 K, x1 = 0.7998	750.81	1146.8	0.64
333.15 K, x1 = 0.8997	756.27	1146.9	0.618
333.15 K, x1 = 1	762.09	1147.7	0.594
